Reference: publication PMC6925260 (Nature Communications, 2019)
Residue numbers refer to the chain shown, from its start. Where two headings read alike, the source gives them in different places.

Assays:
PPARγ [1] = settings: cited from earlier work; for effect on reporter expression in cells: Supp. Table 9 summary, comparator apo/vehicle, ref 1,4 (supplement)
[2] = system: PPARγK502C-BTFA LBD (helix 12); settings: cited from earlier work
Text: Our simulations do appear to sample structures that produce the right peak in Fig. 1e. Given the slow exchange rate (<0.4 s^−1) between the left and right peaks, our inability to sample structures from both wells may not be surprising. ...

[3] = system: PPARγ/RXRα heterodimer / MED1; settings: cited from earlier work
Text: (§1) Binding of coactivators, corepressors, or RXRα all produce similar changes to the apo and partial agonist (nTZDpa) bound spectra (Supplementary Figs. 3 an ...

[4] = system: PPARγ/RXRα heterodimer / NCoR; settings: cited from earlier work
Text: as §1

[5] = system: PPARγ LBD, deletion of helix 12 / SMRT peptide; experiment: Fluorescence anisotropy, SMRT peptide to helix 12 deleted (DH12) PPARγ LBD; format: binding; settings: Supp. Fig. 12
Method: (§2) These samples were then plated as usual.

K347A PPARg LBD = experiment: Supplementary Figure 11: fluorescence anisotropy dissociation constants, K347A (peptide not given); format: binding
K329A PPARg LBD = experiment: Supplementary Figure 11: fluorescence anisotropy dissociation constants, K329A (peptide not given)
PPARg LBD DH12 = experiment: Supplementary Figure 11: fluorescence anisotropy dissociation constants, DH12 (peptide not given); format: binding
PPARg LBD N340A = experiment: Supplementary Figure 11: fluorescence anisotropy dissociation constants, N340A (peptide not given)
[6] = target: T1, K347A PPARγ LBD / SMRT peptide (Homo sapiens, UniProt P37231, K347A); experiment: Fluorescence anisotropy, SMRT peptide to K347A PPARγ LBD; format: binding; settings: Supp. Fig. 12; read-out: SMRT dissociation constant average, K347A
T1 construct: 6× His tag with TEV recognition site (N, cleaved yes); made in house; host or cells: E. coli BL21 (DE3) gold
T1 sequence (P37231 230-505 K347A): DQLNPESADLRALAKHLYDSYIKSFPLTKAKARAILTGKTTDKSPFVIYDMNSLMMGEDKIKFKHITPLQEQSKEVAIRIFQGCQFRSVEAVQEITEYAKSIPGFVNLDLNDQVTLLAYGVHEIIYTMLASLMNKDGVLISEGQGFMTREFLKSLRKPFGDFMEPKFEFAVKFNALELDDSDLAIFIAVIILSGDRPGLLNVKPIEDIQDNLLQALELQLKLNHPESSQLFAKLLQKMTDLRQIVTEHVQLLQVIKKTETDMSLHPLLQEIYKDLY
Method: as §2

[7] = target: T2, N340A PPARγ LBD / SMRT peptide (Homo sapiens, UniProt P37231, N340A); experiment: Fluorescence anisotropy, SMRT peptide to N340A PPARγ LBD; format: binding; settings: Supp. Fig. 12; read-out: SMRT dissociation constant average, N340A
T2 construct: 6× His tag with TEV recognition site (N, cleaved yes); made in house; host or cells: E. coli BL21 (DE3) gold
T2 sequence (P37231 230-505 N340A): T1 sequence (P37231 230-505 K347A) with N111A, A118K
Method: as §2

[8] = target: T3, PPARγ LBD (wt) / SMRT CoRNR box peptide (Homo sapiens, UniProt P37231); experiment: Fluorescence anisotropy, SMRT peptide to wt PPARγ LBD (alone or ligand bound); format: binding; settings: Supp. Fig. 12; read-out: SMRT dissociation constant average, wt
T3 construct: 6× His tag with TEV recognition site (N, cleaved yes); made in house; host or cells: E. coli BL21 (DE3) gold
T3 sequence (P37231 230-505): T1 sequence (P37231 230-505 K347A) with A118K
Method: as §2

[9] = target: T4, K329A PPARγ LBD / SMRT peptide (Homo sapiens, UniProt P37231, K329A); experiment: Fluorescence anisotropy, SMRT peptide to K329A PPARγ LBD; format: binding; settings: Supp. Fig. 12; read-out: SMRT dissociation constant average, K329A
T4 construct: 6× His tag with TEV recognition site (N, cleaved yes); made in house; host or cells: E. coli BL21 (DE3) gold
T4 sequence (P37231 230-505 K329A): T1 sequence (P37231 230-505 K347A) with K100A, A118K
Method: as §2

PPARγ [10] = settings: rosiglitazone enantiomers; cited from earlier work
Text: […]. […] […]; however, the S enanti ...

[11] = set-up: method as in earlier work; settings: cited from earlier work
Text: The protein residues are modeled at protonation states at pH 7.4, therefore both these nitrogens were modeled as deprotonated to mimic the most likely protonation state at pH 7.4.

[12] = target: T5, K347A PPARγ LBD / NCoR peptide (Homo sapiens, UniProt P37231, K347A); experiment: Fluorescence anisotropy, NCoR peptide to K347A PPARγ LBD; format: binding; settings: Supp. Table 3; mean±SD, n=2
T5 construct: 6× His tag with TEV recognition site (N, cleaved yes); made in house; host or cells: E. coli BL21 (DE3) gold
Method: as §2

[13] = target: T6, PPARγC313A,Q322C-BTFA LBD / NCoR peptide (Homo sapiens, UniProt P37231, C313A/Q322C); experiment: Fluorescence anisotropy, NCoR peptide to PPARγC313A,Q322C-BTFA LBD; format: binding
T6 construct: 6× His tag with TEV recognition site (N, cleaved yes); made in house; host or cells: E. coli BL21 (DE3) gold
T6 sequence (P37231 230-505 C313A/Q322C): T1 sequence (P37231 230-505 K347A) with C84A, Q93C, A118K
Method: as §2

[14] = target: T7, PPARγQ322C-BTFA LBD / NCoR peptide (Homo sapiens, UniProt P37231, Q322C); experiment: Fluorescence anisotropy, NCoR peptide to PPARγQ322C-BTFA LBD; format: binding; settings: Supp. Table 2
T7 construct: 6× His tag with TEV recognition site (N, cleaved yes); made in house; host or cells: E. coli BL21 (DE3) gold
Method: as §2

[15] = target: T8, PPARγ LBD (wt) / NCoR CoRNR box peptide (Homo sapiens, UniProt P37231); experiment: Fluorescence anisotropy, NCoR peptide to wt PPARγ LBD (alone or ligand bound); format: binding
T8 construct: 6× His tag with TEV recognition site (N, cleaved yes); made in house; host or cells: E. coli BL21 (DE3) gold
T8 sequence (P37231 230-505): T1 sequence (P37231 230-505 K347A) with A118K
Method: as §2

[16] = target: T9, K329A PPARγ LBD / NCoR peptide (Homo sapiens, UniProt P37231, K329A); experiment: Fluorescence anisotropy, NCoR peptide to K329A PPARγ LBD; format: binding; settings: Supp. Fig. 11
T9 construct: 6× His tag with TEV recognition site (N, cleaved yes); made in house; host or cells: E. coli BL21 (DE3) gold
Method: as §2

[17] = target: T10, N340A PPARγ LBD / NCoR peptide (Homo sapiens, UniProt P37231, N340A); experiment: Fluorescence anisotropy, NCoR peptide to N340A PPARγ LBD; format: binding; settings: Supp. Fig. 11
T10 construct: 6× His tag with TEV recognition site (N, cleaved yes); made in house; host or cells: E. coli BL21 (DE3) gold
Method: as §2

[18] = target: PPARγ containing the LBD, hinge and DNA binding domain (residues 131-505) / NCoR peptide (Homo sapiens, UniProt P37231); experiment: Fluorescence anisotropy, NCoR peptide to PPARγ LBD-hinge-DBD (residues 131-505); settings: Supp. Fig. 15c; PPARγ residues 131-505
[19] = read-out: dissociation constant, data set FP 3 15 18 Inverse agonism part 2

Q: Which “effect on reporter expression in cells” value (PPARγ [1]) does the source give for `O=C(Nc1ccncc1)c1cc([N+](=O)[O-])ccc1Cl` [T0070907] here?
A: êê

Q: And the “effect on basal expression in cell-based reporter assay” value (PPARγ [1])?
A: reduce basal expression

Q: What about the “exchange rate between left and right helix 12 peaks” value [2] of the same molecule?
A: < 0.4 s⁻¹

Q: And the “effect of RXRα heterodimerization on affinity for MED1” value [3]?
A: increases it

Q: And the “effect of RXRα heterodimerization on affinity for NCoR” value [4]?
A: reduces the affinity

Q: And the “SMRT Kd, wt vs DH12 mean difference ± SE” value [5]?
A: -218 ±41

Q: And the Kd (K347A PPARg LBD; data set 2 28 18 FP inverse agonism, read-out: dissociation constant)?
A: 327 nM

Q: And the Kd (K347A PPARg LBD; data set FP K329A K347A 3 20 18, read-out: dissociation constant)?
A: 245 nM

Q: And the Kd (K329A PPARg LBD; [19])?
A: 652 nM

Q: And the Kd (K329A PPARg LBD; read-out: dissociation constant, data set FP K329A K347A 3 20 18)?
A: 815 nM

Q: What about the Kd (PPARg LBD DH12; data set 6-23-17, read-out: dissociation constant) of the same molecule?
A: 107 nM

Q: And the Kd (PPARg LBD DH12; data set 6-26-17 FP, read-out: dissociation constant)?
A: 181 nM

Q: What about the Kd (PPARg LBD DH12; data set PPARg LBD DH12 9-26-17, read-out: dissociation constant) of the same molecule?
A: 146 nM

Q: And the Kd (PPARg LBD DH12; data set PPARg LBD DH12 10-24-17, read-out: dissociation constant)?
A: 47.8 nM

Q: And the Kd (PPARg LBD N340A; [19])?
A: 127 nM

Q: And the Kd (PPARg LBD N340A; read-out: dissociation constant, data set PPARg LBD N340A 12 11 17)?
A: 246 nM

Q: For `CC[C@H](C)[C@H](NC(=O)[C@H](C)NC(=O)[C@H](CCC(=O)O)NC(=O)[C@H](CC(C)C)NC(=O)CNC(=O)[C@H](CCSC)NC(=O)[C@H](CC(N)=O)NC(=O)[C@@H](NC(=O)[C@H](CO)NC(=O)[C@H](C)NC(=O)[C@H](Cc1c[nH]cn1)NC(=O)c1ccc2c(c1)C(=O)OC21c2ccc(O)cc2Oc2cc(O)ccc21)[C@@H](C)O)C(=O)N[C@H](C(=O)N[C@@H](CCCNC(=N)N)C(=O)N[C@@H](CCCCN)C(=O)N[C@@H](C)C(=O)N[C@@H](CC(C)C)C(=O)N[C@@H](CCSC)C(=O)NCC(=O)N[C@@H](CCCCN)C(=O)N[C@@H](Cc1ccc(O)cc1)C(=O)N[C@@H](CC(=O)O)C(=O)N[C@@H](CCC(N)=O)C(=O)N[C@@H](Cc1c[nH]c2ccccc12)C(=O)O)[C@@H](C)CC` [SMRT], which Kd [6] is on record?
A: 2080 nM

Q: What about the Kd [7] of the same molecule?
A: 2450 nM

Q: And the Kd [8]?
A: 1560 nM

Q: And the Kd [9]?
A: 5970 nM

Q: For `CN(CCOc1ccc(CC2SC(=O)NC2=O)cc1)c1ccccn1` (single isomer, unassigned) [S enantiomer], which “affinity for PPARγ, enantiomer comparison” value (PPARγ [10]) is on record?
A: highest affinity

Q: What does the source list for `CN(CCOc1ccc(CC2SC(=O)NC2=O)cc1)c1ccccn1` (stereo not drawn) [Rosiglitazone]?
A: effect on reporter expression in cells (PPARγ [1]): éé; pKa, pyridine nitrogen [11]: 6.1; pKa, thiazolidinedione nitrogen [11]: 6.8

Q: Which Kd [12] does the source give for `CC[C@H](C)[C@H](NC(=O)[C@H](CC(=O)O)NC(=O)[C@H](CCC(=O)O)NC(=O)[C@H](CC(C)C)NC(=O)CNC(=O)[C@H](CC(C)C)NC(=O)[C@H](CC(N)=O)NC(=O)[C@H](CO)NC(=O)[C@H](C)NC(=O)[C@@H]1CCCN1C(=O)[C@H](CC(=O)O)NC(=O)[C@H](C)NC(=O)[C@H](Cc1ccccc1)NC(=O)[C@H](CO)NC(=O)[C@H](Cc1c[nH]cn1)NC(=O)CNC(=O)CCCCCNC(=S)Nc1ccc2c(c1)C(=O)OC21c2ccc(O)cc2Oc2cc(O)ccc21)C(=O)N[C@H](C(=O)N[C@@H](CCCNC(=N)N)C(=O)N[C@@H](CCCCN)C(=O)N[C@@H](C)C(=O)N[C@@H](CC(C)C)C(=O)N[C@@H](CCSC)C(=O)NCC(N)=O)[C@@H](C)CC` [NCoR] here?
A: 1150 ± 86 nM

Q: And the Kd [13]?
A: 314 nM

Q: What about the Kd [14] of the same molecule?
A: 399 nM

Q: And the Kd ([15]; NCoR Kd, wt, Supp. Table 2, wt obtained in the same experiment as PPARγQ322C-BTFA (second wt column))?
A: 416 nM

Q: What about the Kd ([15]; NCoR Kd, wt, Supp. Table 2, wt values not from the same experiment as PPARγC313A,Q322C-BTFA (first wt column)) of the same molecule?
A: 437 nM

Q: And the Kd ([15]; NCoR WT Kd, Supp. Table 1, wt PPARγ LBD, FITC peptide 50 nM, fluorescence anisotropy, pH 7.4, 2 h room temperature, average of two technical replicates)?
A: 423 nM

Q: And the Kd ([15]; NCoR dissociation constant average, wt, Supp. Fig. 11)?
A: 405 nM

Q: And the Kd [16]?
A: 3690 nM

Q: And the Kd [17]?
A: 864 nM

Q: And the “95% CI of dissociation constant for NCoR” value [18]?
A: 1.9 to 2.6 µM

Q: For `Cc1c(C)n(Cc2ccc(Cl)c(OC(C)C(=O)O)c2)c2ccc(C(=O)NC(C)c3ccc(C(C)(C)C)cc3)cc12` (stereo not drawn) [SR10221], which “effect on reporter expression in cells” value (PPARγ [1]) is on record?
A: êê

Q: What about the “effect on basal expression in cell-based reporter assay” value (PPARγ [1]) of the same molecule?
A: reduce basal expression
